Common to all, as to experiment: Pull-down assay with immobilized protein and LSM libraries
One assay has as its target T1, CaM (Bos taurus, UniProt P62157).
T1 construct: made in house; host or cells: E. coli BL21 (DE3)
In kind it is binding, bovine. As to conditions: H12 library; 1:2 stoichiometry assumed; read-out: Surface mapping KD (apparent). The method in brief:
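CaM buffer was 20 mM HEPES pH 7.4, 150 mM NaCl, 5 mM CaCl2. LSM sublibrary members ([…]) incubated 30 min, RT, with equimolar His-tagged protein on Co-NTA resin. HPLC-MS measured unbound probes; bound fraction relative to resin-only background gave dissociation constants.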

A further assay deals with T2, Gal-1 (Homo sapiens, UniProt P09382).
T2 construct: made in house; host or cells: E. coli BL21(DE3)
Format: binding. As to conditions: H12 library; 1:1 binding assumed; read-out: Surface mapping KD (apparent). The method in brief: (§1)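 Buffers were HEPES pH 7.4 with 150 mM NaCl, plus 1 mM TCEP and 1 mM CaCl2 (50 mM HEPES) for S100A4 and S100B, 1 mM TCEP for Gal-1, and no additive for RecQ-WH. Immobilized protein at 64 µM was equilibrated 30 min with the LSM sublibrary, and unbound probes were measured by LC-MS.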

A further assay addresses T3, S100A4 (Homo sapiens, UniProt P26447).
T3 construct: made in house; host or cells: Escherichia coli BL21(DE3)
Format: binding. As to conditions: H12 library; 1:1 binding assumed; read-out: Surface mapping KD (apparent). The method in brief: as §1

The target of the next assay is T4, S100B (Homo sapiens, UniProt P04271).
T4 construct: made in house; host or cells: Escherichia coli BL21(DE3)
T4 sequence (P04271 1-92): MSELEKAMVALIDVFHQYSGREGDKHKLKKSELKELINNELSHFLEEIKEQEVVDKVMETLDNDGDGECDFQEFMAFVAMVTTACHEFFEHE
In kind it is binding. As to conditions: H12 library; 1:1 binding assumed; read-out: Surface mapping KD (apparent). The method, boiled down:
as §1

T2 sequence (P09382 whole entry): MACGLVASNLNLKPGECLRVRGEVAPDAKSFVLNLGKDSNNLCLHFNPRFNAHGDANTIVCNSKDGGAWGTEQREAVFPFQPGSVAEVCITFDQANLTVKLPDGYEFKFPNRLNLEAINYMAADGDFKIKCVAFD
T3 sequence (P26447 whole entry): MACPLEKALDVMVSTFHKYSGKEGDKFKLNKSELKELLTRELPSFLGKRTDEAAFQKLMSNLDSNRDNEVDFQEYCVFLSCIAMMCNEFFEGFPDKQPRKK

In the case of `CSCC[C@@H](CC(=O)N[C@H]1CCC[C@@H]1C(=O)N[C@H]1CCC[C@@H]1C(N)=O)NC(=O)[C@H]1CCC[C@@H]1NC(=O)[C@H]1CCC[C@@H]1NC(=O)C[C@H](CC(C)C)NC(=O)[C@H]1CCC[C@@H]1NC(=O)[C@H]1CCC[C@@H]1N` [H12 LM], the Kd is 211 µM at CaM, 378 µM at Gal-1, 381 µM on S100A4 and 74 µM at S100B.

`CC[C@H](C)[C@@H](CC(=O)N[C@H]1CCC[C@@H]1C(=O)N[C@H]1CCC[C@@H]1C(=O)N[C@H](CC(=O)N[C@H]1CCC[C@@H]1C(=O)N[C@H]1CCC[C@@H]1C(N)=O)Cc1c[nH]c2ccccc12)NC(=O)[C@H]1CCC[C@@H]1NC(=O)[C@H]1CCC[C@@H]1N` [H12 IW]: the Kd at CaM came to 19 µM; on Gal-1 it was 368 µM; at S100A4, 28 µM; at S100B it was 11 µM.

As to `N=C(N)NCCC[C@@H](CC(=O)N[C@H]1CCC[C@@H]1C(=O)N[C@H]1CCC[C@@H]1C(N)=O)NC(=O)[C@H]1CCC[C@@H]1NC(=O)[C@H]1CCC[C@@H]1NC(=O)C[C@H](CCCNC(=N)N)NC(=O)[C@H]1CCC[C@@H]1NC(=O)[C@H]1CCC[C@@H]1N` [H12 RR], the Kd on CaM was found to be 123 µM; at Gal-1, 181 µM; at S100A4, 210 µM; on S100B it was 89 µM.

Consider `NCCCC[C@@H](CC(=O)N[C@H]1CCC[C@@H]1C(=O)N[C@H]1CCC[C@@H]1C(=O)N[C@H](CC(=O)N[C@H]1CCC[C@@H]1C(=O)N[C@H]1CCC[C@@H]1C(N)=O)Cc1ccccc1)NC(=O)[C@H]1CCC[C@@H]1NC(=O)[C@H]1CCC[C@@H]1N` [H12 KF], for which the Kd is 239 µM on CaM, 292 µM at Gal-1, 416 µM on S100A4 and 66 µM at S100B.

As for `N=C(N)NCCC[C@@H](CC(=O)N[C@H]1CCC[C@@H]1C(=O)N[C@H]1CCC[C@@H]1C(=O)N[C@H](CC(=O)N[C@H]1CCC[C@@H]1C(=O)N[C@H]1CCC[C@@H]1C(N)=O)Cc1ccc(O)cc1)NC(=O)[C@H]1CCC[C@@H]1NC(=O)[C@H]1CCC[C@@H]1N` [H12 RY], the Kd at CaM turned out to be 381 µM; on Gal-1, 198 µM; at S100A4, 400 µM; on S100B, 89 µM.

As for `CC(C)[C@@H](CC(=O)N[C@H]1CCC[C@@H]1C(=O)N[C@H]1CCC[C@@H]1C(=O)N[C@H](CC(=O)N[C@H]1CCC[C@@H]1C(=O)N[C@H]1CCC[C@@H]1C(N)=O)Cc1ccc(O)cc1)NC(=O)[C@H]1CCC[C@@H]1NC(=O)[C@H]1CCC[C@@H]1N` [H12 VY], the Kd amounted to 247 µM at CaM, 413 µM at Gal-1, 392 µM on S100A4 and 210 µM on S100B.

In the case of `CC(C)C[C@@H](CC(=O)N[C@H]1CCC[C@@H]1C(=O)N[C@H]1CCC[C@@H]1C(=O)N[C@@H](CCCNC(=N)N)CC(=O)N[C@H]1CCC[C@@H]1C(=O)N[C@H]1CCC[C@@H]1C(N)=O)NC(=O)[C@H]1CCC[C@@H]1NC(=O)[C@H]1CCC[C@@H]1N` [H12 LR], the Kd at CaM is 236 µM; at Gal-1, 120 µM; at S100A4, 345 µM; at S100B it was 29 µM.

As to `CC(C)C[C@@H](CC(=O)N[C@H]1CCC[C@@H]1C(=O)N[C@H]1CCC[C@@H]1C(=O)N[C@H](CC(=O)N[C@H]1CCC[C@@H]1C(=O)N[C@H]1CCC[C@@H]1C(N)=O)Cc1c[nH]c2ccccc12)NC(=O)[C@H]1CCC[C@@H]1NC(=O)[C@H]1CCC[C@@H]1N` [H12 LW], the Kd worked out at 19 µM on CaM, 368 µM at Gal-1, 28 µM on S100A4 and 11 µM on S100B.

In the case of `CC[C@H](C)[C@@H](CC(=O)N[C@H]1CCC[C@@H]1C(=O)N[C@H]1CCC[C@@H]1C(N)=O)NC(=O)[C@H]1CCC[C@@H]1NC(=O)[C@H]1CCC[C@@H]1NC(=O)C[C@H](Cc1ccccc1)NC(=O)[C@H]1CCC[C@@H]1NC(=O)[C@H]1CCC[C@@H]1N` [H12 FI], the Kd at CaM was 15 µM; on Gal-1, 167 µM; at S100A4 it was 126 µM; at S100B it was 13 µM.

As to `CSCC[C@@H](CC(=O)N[C@H]1CCC[C@@H]1C(=O)N[C@H]1CCC[C@@H]1C(N)=O)NC(=O)[C@H]1CCC[C@@H]1NC(=O)[C@H]1CCC[C@@H]1NC(=O)C[C@H](CCCNC(=N)N)NC(=O)[C@H]1CCC[C@@H]1NC(=O)[C@H]1CCC[C@@H]1N` [H12 RM], the Kd at CaM was determined as 464 µM; at Gal-1, 201 µM; on S100A4, 335 µM; at S100B, 96 µM.

`CC(C)C[C@@H](CC(=O)N[C@H]1CCC[C@@H]1C(=O)N[C@H]1CCC[C@@H]1C(N)=O)NC(=O)[C@H]1CCC[C@@H]1NC(=O)[C@H]1CCC[C@@H]1NC(=O)C[C@H](Cc1c[nH]c2ccccc12)NC(=O)[C@H]1CCC[C@@H]1NC(=O)[C@H]1CCC[C@@H]1N` [H12 WL]: the Kd at CaM was 27 µM; at Gal-1, 200 µM; on S100A4, 105 µM; at S100B, 21 µM.

For the compound `CC[C@H](C)[C@@H](CC(=O)N[C@H]1CCC[C@@H]1C(=O)N[C@H]1CCC[C@@H]1C(=O)N[C@H](CC(=O)N[C@H]1CCC[C@@H]1C(=O)N[C@H]1CCC[C@@H]1C(N)=O)Cc1ccc(O)cc1)NC(=O)[C@H]1CCC[C@@H]1NC(=O)[C@H]1CCC[C@@H]1N` [H12 IY], the Kd at CaM was 28 µM; at Gal-1 it was 347 µM; on S100A4, 100 µM; at S100B, 56 µM.

Turning to `NC(=O)[C@H]1CCC[C@@H]1NC(=O)[C@H]1CCC[C@@H]1NC(=O)C[C@H](Cc1c[nH]c2ccccc12)NC(=O)[C@H]1CCC[C@@H]1NC(=O)[C@H]1CCC[C@@H]1NC(=O)C[C@H](Cc1ccccc1)NC(=O)[C@H]1CCC[C@@H]1NC(=O)[C@H]1CCC[C@@H]1N` [H12 FW], the Kd at CaM is 134 µM; on Gal-1 it was 136 µM; at S100A4, 75 µM; at S100B it was 10 µM.

As to `CC(C)C[C@@H](CC(=O)N[C@H]1CCC[C@@H]1C(=O)N[C@H]1CCC[C@@H]1C(N)=O)NC(=O)[C@H]1CCC[C@@H]1NC(=O)[C@H]1CCC[C@@H]1NC(=O)C[C@H](CCCCN)NC(=O)[C@H]1CCC[C@@H]1NC(=O)[C@H]1CCC[C@@H]1N` [H12 KL], the Kd was 324 µM at CaM, 316 µM at Gal-1, 89 µM on S100A4 and 68 µM on S100B.

On to `CC(C)[C@@H](CC(=O)N[C@H]1CCC[C@@H]1C(=O)N[C@H]1CCC[C@@H]1C(=O)N[C@H](CC(=O)N[C@H]1CCC[C@@H]1C(=O)N[C@H]1CCC[C@@H]1C(N)=O)Cc1c[nH]c2ccccc12)NC(=O)[C@H]1CCC[C@@H]1NC(=O)[C@H]1CCC[C@@H]1N` [H12 VW], for which the Kd at CaM was determined as 56 µM; on Gal-1, 346 µM; at S100A4, 184 µM; on S100B, 31 µM.

Turning to `CC(C)C[C@@H](CC(=O)N[C@H]1CCC[C@@H]1C(=O)N[C@H]1CCC[C@@H]1C(N)=O)NC(=O)[C@H]1CCC[C@@H]1NC(=O)[C@H]1CCC[C@@H]1NC(=O)C[C@H](CCCNC(=N)N)NC(=O)[C@H]1CCC[C@@H]1NC(=O)[C@H]1CCC[C@@H]1N` [H12 RL], the Kd worked out at 252 µM on CaM, 194 µM at Gal-1, 245 µM on S100A4 and 56 µM on S100B.

For `CC[C@H](C)[C@@H](CC(=O)N[C@H]1CCC[C@@H]1C(=O)N[C@H]1CCC[C@@H]1C(=O)N[C@H](CC(=O)N[C@H]1CCC[C@@H]1C(=O)N[C@H]1CCC[C@@H]1C(N)=O)Cc1ccccc1)NC(=O)[C@H]1CCC[C@@H]1NC(=O)[C@H]1CCC[C@@H]1N` [H12 IF], the Kd turned out to be 28 µM on CaM, 376 µM on Gal-1, 32 µM at S100A4 and 22 µM at S100B.

Consider `CC[C@H](C)[C@@H](CC(=O)N[C@H]1CCC[C@@H]1C(=O)N[C@H]1CCC[C@@H]1C(N)=O)NC(=O)[C@H]1CCC[C@@H]1NC(=O)[C@H]1CCC[C@@H]1NC(=O)C[C@H](Cc1c[nH]c2ccccc12)NC(=O)[C@H]1CCC[C@@H]1NC(=O)[C@H]1CCC[C@@H]1N` [H12 WI], for which the Kd is 134 µM at CaM, 174 µM on Gal-1, 164 µM on S100A4 and 18 µM on S100B.

Take `NC(=O)[C@H]1CCC[C@@H]1NC(=O)[C@H]1CCC[C@@H]1NC(=O)C[C@H](Cc1ccccc1)NC(=O)[C@H]1CCC[C@@H]1NC(=O)[C@H]1CCC[C@@H]1NC(=O)C[C@H](Cc1c[nH]c2ccccc12)NC(=O)[C@H]1CCC[C@@H]1NC(=O)[C@H]1CCC[C@@H]1N` [H12 WF]: the Kd on CaM was found to be 9 µM; on Gal-1, 117 µM; at S100A4, 135 µM; on S100B, 7 µM.

As for `CC[C@H](C)[C@@H](CC(=O)N[C@H]1CCC[C@@H]1C(=O)N[C@H]1CCC[C@@H]1C(N)=O)NC(=O)[C@H]1CCC[C@@H]1NC(=O)[C@H]1CCC[C@@H]1NC(=O)C[C@H](CCCNC(=N)N)NC(=O)[C@H]1CCC[C@@H]1NC(=O)[C@H]1CCC[C@@H]1N` [H12 RI], the Kd came out at 252 µM at CaM, 194 µM on Gal-1, 245 µM on S100A4 and 56 µM on S100B.

The record behind these values is publication PMC8162404, “Proteomimetic surface fragments distinguish targets by function” (Chemical Science, 2020).
